Source: US9221807B2, “Substituted pyridones and pyrazinones and their use as inhibitors of neutrophil elastase activity” (Boehringer Ingelheim International GmbH, priority 2014, dated 2015)

Biological target: T1, Human neutrophil elastase (Homo sapiens, UniProt P08246)
T1 construct: purchased Calbiochem 324681
T1 sequence (P08246 30-267): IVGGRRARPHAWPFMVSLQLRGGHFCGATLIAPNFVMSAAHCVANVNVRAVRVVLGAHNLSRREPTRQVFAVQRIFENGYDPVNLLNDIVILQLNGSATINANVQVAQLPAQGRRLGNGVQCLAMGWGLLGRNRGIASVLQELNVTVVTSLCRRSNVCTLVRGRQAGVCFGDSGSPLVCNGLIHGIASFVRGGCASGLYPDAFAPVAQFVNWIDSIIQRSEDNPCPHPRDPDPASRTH
Experiment: Human Neutrophil Elastase Assay
Type: biochemical
Details: substrate MeOSuc-Ala-Ala-Pro-Val-AMC 250 μM, pH 7.5, fluorescence
Experimental: Human Neutrophil Elastase Assay
Materials: Human neutrophil elastase was purchased from Calbiochem (Cat. No.: 324681) and the elastase substrate MeOSuc-Ala-Ala-Pro-Val-AMC from Bachem (Cat. No.: 1-1270). All other materials were of the highest grade commercially available. The following buffers were used: Compound buffer: 100 mM Tris, 500 mM NaCl, adjusted to pH 7.5; Assay buffer: 100 mM Tris, 500 mM NaCl, adjusted to pH 7.5, containing 0.01% BSA. Assay conditions: Test compounds were prediluted in DMSO and subsequently in compound buffer (5% DMSO final). 5 μL of these compound dilutions were mixed with 10 μl Neutrophil elastase (9 ng/ml in assay buffer) in a black 384 well OptiPlate (Perkin Elmer, Cat No.: 6007270) and incubated for 15 min at room temperature. Subsequently 10 μL substrate solution in assay buffer were added (250 μM final concentration) and the plates were incubated for 60 min at room temperature. After inactivation of the enzyme, fluorescence intensities were measured at 380 nm excitation and 460 nm emission wavelengths. Each plate contains wells with a high value control (DMSO+enzyme+substrate) and wells with a low value control (DMSO+inactivated enzyme+substrate). IC50 values were estimated using a sigmoidal concentration response curve with variable slope. Means of low values were taken as 0%, means of high values as 100%.

| SMILES | IC50 |
| --- | --- |
| CN=S(C)(=N)c1ccc(CNC(=O)c2cc(-c3ccnn3C)c(C)n(-c3cccc(C(F)(F)F)c3)c2=O)cc1 (centres unmarked) [Example 15.1] | 88.7 nM |
| Cc1c(-c2ccnn2C)cc(C(=O)NCc2ccc(S(C)=N)cc2)c(=O)n1-c1cccc(C(F)(F)F)c1 (centres unmarked) [Example 2, 6-Methyl-5-(2-methylpyrazol-3-yl)-N-[[4-(methylsulfinimidoyl)phenyl]methyl]-2-oxo-1-[3-(trifluoromethyl)phenyl]pyridine-3-carboxamide] | 42 nM |
| Cc1c(-c2ccnn2C)cc(C(=O)NCc2ccc(S(C)(=N)=NC#N)cc2)c(=O)n1-c1cccc(C(F)(F)F)c1 (centres unmarked) [Example 15.2] | 6.7 nM |
| Cc1c(-c2ccnn2C)cc(C(=O)NCc2ccc(S(C)(=N)=O)cc2)c(=O)n1-c1cccc(C(F)(F)F)c1 (single isomer, unassigned) [Example 4B] | 41.5 nM |
| CN=S(=O)(NCc1ccccc1)c1ccc(CNC(=O)c2cc(-c3ccnn3C)c(C)n(-c3cccc(C(F)(F)F)c3)c2=O)cc1 (centres unmarked) [Example 1.2] | 14.4 nM |
| Cc1c(-c2ccnn2C)nc(C(=O)NCc2ccc(S(C)(=O)=NC#N)cc2)c(=O)n1-c1cccc(C(F)(F)F)c1 (single isomer, unassigned) [Example 16, N-[[4-(N-Cyano-S-methyl-sulfonimidoyl)phenyl]methyl]-5-methyl-6-(2-methylpyrazol-3-yl)-3-oxo-4-[3-(trifluoromethyl)phenyl]pyrazine-2-carboxamide] | 11.1 nM |
| Cc1c(-c2ccnn2-c2ccc(C#N)cc2)nc(C(=O)NCc2ccc(S(C)(=O)=NC#N)cc2)c(=O)n1-c1cccc(C(F)(F)F)c1 (single isomer, unassigned) [Example 17, N-[[4-(N-Cyano-S-methyl-sulfonimidoyl)phenyl]methyl]-6-[2-(4-cyanophenyl)pyrazol-3-yl]-5-methyl-3-oxo-4-[3-(trifluoromethyl)phenyl]pyrazine-2-carboxamide] | < 1 nM |
| Cc1c(-c2ccnn2C)cc(C(=O)NCc2ccc(S(C)(=O)=N[N+](=O)[O-])cc2)c(=O)n1-c1cccc(C(F)(F)F)c1 (centres unmarked) [Example 12, 6-Methyl-N-[[4-(S-methyl-N-nitro-sulfonimidoyl)phenyl]methyl]-5-(2-methylpyrazol-3-yl)-2-oxo-1-[3-(trifluoromethyl)phenyl]pyridine-3-carboxamide] | 5 nM |
| Cc1c(-c2ccnn2C)cc(C(=O)NCc2ccc(S(C)(=N)=O)cc2)c(=O)n1-c1cccc(C(F)(F)F)c1 (racemic) [Example 4, 6-Methyl-5-(2-methylpyrazol-3-yl)-N-[[4-(methylsulfonimidoyl)phenyl]methyl]-2-oxo-1-[3-(trifluoromethyl)phenyl]pyridine-3-carboxamide] | 173 nM |
| Cc1c(-c2ccnn2C)cc(C(=O)NCc2ccc(S(C)(=N)=N)cc2)c(=O)n1-c1cccc(C(F)(F)F)c1 [Example 14, 6-Methyl-5-(2-methylpyrazol-3-yl)-N-[[4-(methylsulfonodiimidoyl)phenyl]methyl]-2-oxo-1-[3-(trifluoromethyl)phenyl]pyridine-3-carboxamide] | 261 nM |
| Cc1c(-c2ccnn2C)cc(C(=O)NCc2ccc(S(C)(=O)=NC#N)cc2)c(=O)n1-c1cccc(C(F)(F)F)c1 (single isomer, unassigned) [Example 3B] | 2.3 nM |
| CN=S(C)(=O)c1ccc(CNC(=O)c2cc(-c3ccnn3C)c(C)n(-c3cccc(C(F)(F)F)c3)c2=O)cc1 (centres unmarked) [Example 11, N-[[4-(N,S-Dimethylsulfonimidoyl)phenyl]methyl]-6-methyl-5-(2-methylpyrazol-3-yl)-2-oxo-1-[3-(trifluoromethyl)phenyl]pyridine-3-carboxamide] | 40.3 nM |
| CNC(=O)N=S(C)(=O)c1ccc(CNC(=O)c2cc(-c3ccnn3C)c(C)n(-c3cccc(C(F)(F)F)c3)c2=O)cc1 (centres unmarked) [Example 10, 6-Methyl-N-[[4-[S-methyl-N-(methylcarbamoyl)sulfonimidoyl]phenyl]methyl]-5-(2-methylpyrazol-3-yl)-2-oxo-1-[3-(trifluoromethyl)phenyl]pyridine-3-carboxamide] | 50 nM |
| Cc1c(-c2ccnn2C)cc(C(=O)NCc2ccc(S(C)(=O)=NC(=O)N3CCOCC3)cc2)c(=O)n1-c1cccc(C(F)(F)F)c1 (centres unmarked) [Example 9.2] | 72.7 nM |
| COCCN=S(C)(=N)c1ccc(CNC(=O)c2cc(-c3ccnn3C)c(C)n(-c3cccc(C(F)(F)F)c3)c2=O)cc1 (centres unmarked) [Example 15, N-[[4-[N-(2-Methoxyethyl)-S-methyl-sulfonodiimidoyl]phenyl]methyl]-6-methyl-5-(2-methylpyrazol-3-yl)-2-oxo-1-[3-(trifluoromethyl)phenyl]pyridine-3-carboxamide] | 43.5 nM |
| Cc1c(-c2ccnn2C)cc(C(=O)NCc2ccc(S(C)(=N)=O)cc2)c(=O)n1-c1cccc(C(F)(F)F)c1 (single isomer, unassigned) [Example 4A] | 93.9 nM |
| Cc1c(-c2ccnn2C)cc(C(=O)NCc2ccc(S(C)(=O)=NC#N)cc2)c(=O)n1-c1cccc(C(F)(F)F)c1 (racemic) [Example 3, N-[[4-(N-Cyano-S-methyl-sulfonimidoyl)phenyl]methyl]-6-methyl-5-(2-methylpyrazol-3-yl)-2-oxo-1-[3-(trifluoromethyl)phenyl]pyridine-3-carboxamide] | 2.6 nM |
| Cc1c(-c2ccnn2C)cc(C(=O)NCc2ccc(S(C)(=O)=NC(N)=O)cc2)c(=O)n1-c1cccc(C(F)(F)F)c1 (centres unmarked) [Example 6, N-[[4-(N-Carbamoyl-S-methyl-sulfonimidoyl)phenyl]methyl]-6-methyl-5-(2-methyl-pyrazol-3-yl)-2-oxo-1-[3-(trifluoromethyl)phenyl]pyridine-3-carboxamide] | 45.8 nM |
| CN=S(=O)(c1ccc(CNC(=O)c2cc(-c3ccnn3C)c(C)n(-c3cccc(C(F)(F)F)c3)c2=O)cc1)N1CCCCC1 (stereo not drawn) [Example 13, 6-Methyl-N-[[4-[N-methyl-S-(1-piperidyl)sulfonimidoyl]phenyl]methyl]-5-(2-methyl-pyrazol-3-yl)-2-oxo-1-[3-(trifluoromethyl)phenyl]pyridine-3-carboxamide] | 28.4 nM |
| CN=S(=O)(c1ccc(CNC(=O)c2cc(-c3ccnn3C)c(C)n(-c3cccc(C(F)(F)F)c3)c2=O)cc1)N(C)C (centres unmarked) [Example 1.1] | 11.4 nM |
| Cc1c(-c2ccnn2C)cc(C(=O)NCc2ccc(S(C)(=O)=N/C(N)=N/O)cc2)c(=O)n1-c1cccc(C(F)(F)F)c1 (centres unmarked) [Example 8, N-[[4-[N—[N-Hydroxycarbamimidoyl]-S-methyl-sulfonimidoyl]phenyl]methyl]-6-methyl-5-(2-methylpyrazol-3-yl)-2-oxo-1-[3-(trifluoromethyl)phenyl]pyridine-3-carboxamide] | 64.4 nM |
| Cc1c(-c2ccnn2C)cc(C(=O)NCc2ccc(S(C)(=O)=NC#N)cc2)c(=O)n1-c1cccc(C(F)(F)F)c1 (single isomer, unassigned) [Example 3A] | 4.5 nM |
| Cc1c(-c2ccnn2C)cc(C(=O)NCc2ccc(S(C)(=O)=NS(C)(=O)=O)cc2)c(=O)n1-c1cccc(C(F)(F)F)c1 (centres unmarked) [Example 9.3] | 12.6 nM |
| CC(=O)N=S(C)(=O)c1ccc(CNC(=O)c2cc(-c3ccnn3C)c(C)n(-c3cccc(C(F)(F)F)c3)c2=O)cc1 (centres unmarked) [Example 9.1] | 37 nM |
| Cc1nc(N=S(C)(=O)c2ccc(CNC(=O)c3cc(-c4ccnn4C)c(C)n(-c4cccc(C(F)(F)F)c4)c3=O)cc2)oc1C (centres unmarked) [Example 7, N-[[4-[N-(4,5-Dimethyloxazol-2-yl)-S-methyl-sulfonimidoyl]phenyl]methyl]-6-methyl-5-(2-methylpyrazol-3-yl)-2-oxo-1-[3-(trifluoromethyl)phenyl]pyridine-3-carboxamide] | 34.3 nM |
| CN=S(=O)(c1ccc(CNC(=O)c2cc(-c3ccnn3C)c(C)n(-c3cccc(C(F)(F)F)c3)c2=O)cc1)N(C)OC (centres unmarked) [Example 1.3] | 12.5 nM |
| Cc1c(-c2ccnn2C)cc(C(=O)NCc2ccc(/S(C)=N/C(N)=O)cc2)c(=O)n1-c1cccc(C(F)(F)F)c1 (centres unmarked) [Example 5, N-[[4-(N-Carbamoyl-S-methyl-sulfinimidoyl)phenyl]methyl]-6-methyl-5-(2-methyl-pyrazol-3-yl)-2-oxo-1-[3-(trifluoromethyl)phenyl]pyridine-3-carboxamide] | 35.7 nM |
| COC(=O)N=S(C)(=O)c1ccc(CNC(=O)c2cc(-c3ccnn3C)c(C)n(-c3cccc(C(F)(F)F)c3)c2=O)cc1 (centres unmarked) [Example 9, Methyl N-[Methyl-[4-[[[6-methyl-5-(2-methylpyrazol-3-yl)-2-oxo-1-[3-(trifluoromethyl)phenyl]pyridine-3-carbonyl]amino]methyl]phenyl]-oxo-λ^6-sulfanylidene]-carbamate] | 17.6 nM |
| Cc1c(-c2ccnn2C)cc(C(=O)NCc2ccc(/S(C)=N/C#N)cc2)c(=O)n1-c1cccc(C(F)(F)F)c1 (centres unmarked) [Example 1, N-[[4-(N-Cyano-S-methyl-sulfinimidoyl)phenyl]methyl]-6-methyl-5-(2-methyl-pyrazol-3-yl)-2-oxo-1-[3-(trifluoromethyl)phenyl]pyridine-3-carboxamide] | 1.2 nM |
